Measured values reported in ChEMBL document CHEMBL1127510, “Plant antitumor agents. 31. The calycopterones, a new class of biflavonoids with novel cytotoxicity in a diverse panel of human tumor cell lines” (J Med Chem, 1994).
In brackets after ≈: the same amount, converted by molar mass. Several values for one entry are separate records, joined by “and”; a condition that tells them apart may be missing. Equal values may be shown once.

How the values were obtained:
[1] = test system: KB; test: In vitro cytotoxicity against oral epidermoid carcinoma cell line; type: functional, cell-based; details: Homo sapiens
[2] = test system: Fibrosarcoma cell line; test: In vitro cytotoxicity against fibrosarcoma cell line; type: functional, cell-based; details: Homo sapiens
[3] = test system: BC1 cell line; test: In vitro cytotoxicity against breast cancer cell line; type: functional, cell-based; details: Homo sapiens
[4] = test system: A-431; test: In vitro cytotoxicity against epidermoid carcinoma cell line; type: functional, cell-based; details: Homo sapiens
[5] = test system: Lung cancer cell line; test: In vitro cytotoxicity against lung cancer cell line; type: functional, cell-based; details: Homo sapiens
[6] = test system: P388; test: In vitro cytotoxicity against murine lymphoid neoplasm cell line; type: functional, cell-based; details: Mus musculus
[7] = test system: U373 MG; test: In vitro cytotoxicity against glioblastoma cell line; type: functional, cell-based, U-373MG ATCC; details: Homo sapiens
[8] = test system: Colon carcinoma cell; test: In vitro cytotoxicity against colon cancer cell line; type: functional, cell-based; details: Homo sapiens
[9] = test system: SK-VLB; test: Compound was tested for cytotoxicity against ovarian adenocarcinoma, multidrug resistant; details: Homo sapiens
[10] = test system: HT-29; test: Compound was tested for cytotoxicity against colon adenocarcinoma; type: functional, cell-based, Homo sapiens
[11] = test system: KB; test: In vitro cytotoxicity against vinblastine resistant KB cell line; type: functional, cell-based; details: Homo sapiens
[12] = test system: SK-OV-3; test: Compound was tested for cytotoxicity against ovarian adenocarcinoma; details: Homo sapiens
[13] = test system: SK-VLB; test: Compound was tested for cytotoxicity against ovarian adenocarcinoma, multidrug resistant; type: functional, cell-based; details: Homo sapiens
[14] = test system: SK-OV-3; test: Comparison of cytotoxicity of calycopterone and flavone with doxorubicin against ovarian adenocarcinoma; type: functional, cell-based, Homo sapiens

| SMILES | EC50 [1] [µg/mL] | EC50 [2] [µg/mL] | EC50 [3] [µg/mL] | EC50 [4] [µg/mL] | EC50 [5] [µg/mL] | EC50 [6] [µg/mL] | EC50 [7] [µg/mL] | EC50 [8] [µg/mL] | IC50 [9] [nM] | IC50 ([10]; Homo sapiens, HT-29) [nM] | EC50 [11] [µg/mL] | IC50 [12] [nM] | IC50 ([10]; ht-29) | IC50 [13] [nM] | IC50 [14] |
| --- | --- | --- | --- | --- | --- | --- | --- | --- | --- | --- | --- | --- | --- | --- | --- |
| COC1=C(OC)[C@@]2(OC)c3c(OC)c(O)c4c(c3O[C@@]23O[C@@H](c2ccccc2)CC=C3C1=O)[C@@H](OC)C[C@H](c1ccccc1)O4 | 0.4 (≈ 0.651 µM) | 0.4 (≈ 0.651 µM) | 0.4 (≈ 0.651 µM) | 0.4 (≈ 0.651 µM) | 0.7 (≈ 1.14 µM) | 0.2 (≈ 0.325 µM) | 0.8 (≈ 1.3 µM) | 0.3 (≈ 0.488 µM) |  |  |  |  |  |  |  |
| COc1cc(-c2oc3cc(OC)c(OC)c(O)c3c(=O)c2OC)ccc1O [CHRYSOSPLENOL B] | > 20 | 4.2 (≈ 11.2 µM) | > 20 | > 20 | > 20 | > 20 | > 20 | > 20 | > 133000 | 14200 | 0.8 (≈ 2.14 µM) | 79000 |  |  |  |
| COc1cccc2c1C(=O)c1c(O)c3c(c(O)c1C2=O)C[C@@](O)(C(=O)CO)C[C@@H]3O[C@H]1C[C@H](N)[C@H](O)[C@H](C)O1 [DOXORUBICIN] |  |  |  |  |  |  |  |  | > 10000 | 180 |  | 43 |  |  |  |
| COC1=C(OC)[C@@]2(OC)c3c(O)c(OC)c4c(c3O[C@@]23O[C@@H](c2ccccc2)CC=C3C1=O)[C@@H](OC)C[C@H](c1ccccc1)O4 [CALYCOPTERONE] | 0.8 (≈ 1.3 µM) | 1.8 (≈ 2.93 µM) | 5.4 (≈ 8.79 µM) | 1 (≈ 1.63 µM) | 1.2 (≈ 1.95 µM) | 0.78 (≈ 1.27 µM) | 0.1 (≈ 0.163 µM) | 0.4 (≈ 0.651 µM) |  |  | 9.6 (≈ 15.6 µM) |  | 240 nM and 930 nM | 1900 | 125 nM and 1000 nM |
| COC1=C(OC)[C@@]2(OC)c3c(O)c(OC)c4c(c3O[C@@]23O[C@@H](c2ccccc2)CC=C3C1=O)[C@@H](O)C[C@H](c1ccccc1)O4 | 1.2 (≈ 2 µM) | 0.8 (≈ 1.33 µM) | 1.4 (≈ 2.33 µM) | 0.2 (≈ 0.333 µM) | 1.6 (≈ 2.66 µM) | 0.42 (≈ 0.699 µM) | 0.3 (≈ 0.499 µM) | 0.3 (≈ 0.499 µM) |  |  | 8.6 (≈ 14.3 µM) |  |  |  |  |
